The record followed here is paper PMC12561453, “Synthesis and Structure–Activity Relationship Study of 2-(amino)quinazolin-4(3H)-one Derivatives as Potential Inhibitors of Methicillin-Resistant Staphylococcus aureus (MRSA)” (Antibiotics, 2025).

Structures are written as SMILES. Values after ≈ are worked out from the molar mass of the structure shown. Like-named read-outs stand apart in the source and are kept apart here.

As a reminder, the MIC50 is the lowest concentration that inhibits either 50% of growth or 50% of the strains tested, depending on the study. Usually IC50 stands for the midpoint of a concentration-inhibition curve. Usually inhibition stands for the relative decrease from the control value, in per cent.

In data set [1] the test system is S. aureus USA300 JE2. Briefly: Broth microdilution dose-response, S. aureus USA300 JE2 (MRSA). In kind it is cell-based, Staphylococcus aureus. The note with it: Staphylococcus aureus, USA300, USA300 JE2, methicillin-resistant; OD600 after 18–24 h; read-out: USA300 MIC50. The source says:
The antistaphylococcal activities (MIC50) of the synthesized compounds were examined via a previously described broth microdilution method against two S. aureus strains: ATCC25923, a methicillin-sensitive reference strain, and JE2, a methicillin-resistant strain of the USA300 lineage (Figure 2, Table 1).
Staphylococcus aureus USA300, a methicillin-resistant strain, was obtained from the Nebraska Transposon Mutant Library. Staphylococcus aureus ATCC25923, a pan-drug-susceptible strain, was purchased from the American Type Culture Collection (ATCC) (Manassas, VA, USA). S. aureus strains were grown in Cation-Adjusted Mueller–Hinton broth (CAMHB) (Difco) at 37 °C. Bacterial strain stocks were stored in vials with 25% glycerol at −80 °C. For each experiment, overnight cultures were prepared by inoculating a frozen bacterial strain stock in 10 mL of CAMHB medium and incubating at 37 °C in a shaking incubator (180 rpm). For the preliminary screen and dose–response experiments, 100 µL of overnight culture was inoculated into 10 mL of fresh CAMHB and incubated for 3 h at 37 °C and 180 rpm.
Antibiotic susceptibility assay was tested according to modified Clinical and Laboratory Standards Institute (CLSI) laboratory guidelines for broth microdilution assays. S. aureus was cultured in CAMHB, and bacterial cells were prepared with an OD600 of 0.005. DRC plates were prepared by adding 40 µL of bacterial suspension to each well, where 10 µL of each compound had been dispensed for […] of two-fold serial dilutions starting at […]. After incubation of the plates at 37 °C for 18–24 h with 5% CO2, the growth of S. aureus was detected by measuring the OD600nm using an Ensight (Revvity) spectrometer (Revvity, Waltham, MA, USA).
Figure 2 In vitro antibacterial activities of 2-(amino)quinazolin-4(3H)-one derivatives. S. aureus ATCC25923 (blue) and USA300 JE (orange) strains were incubated with serial dilutions of 2-(amino)quinazolin-4(3H)-one derivatives (0.19–100 µM) for 18–24 h. The dose–responses were observed by measuring OD600nm. The plots were drawn from each group of strains with nonlinear curve fits.
On the technique in general: In broth dilution the organism is exposed to a series of concentrations in liquid medium.

For data set [2], the system named is HepG2 cells. As to the kind of experiment: In vitro cytotoxicity, HepG2 viability (resazurin). Format: cell-based, human. The following applies: HepG2 cells, 24 h, resazurin, read-out: HepG2 IC50. The procedure: The in vitro cytotoxicity of the compounds was evaluated by measuring the viability of HepG2 cells, a human liver cell line, following treatment in a dose–response manner, as previously described. […] The efficacy window was calculated as the ratio of IC50 in HepG2 cells to MIC50 against JE2.
To test cytotoxicity with compounds, the human liver cell line HepG2 (ATCC #HB-8065) was used for the assay. HepG2 was cultured in DMEM with 10% fetal bovine serum (FBS) in a 96-well microplate at 37 °C and 5% CO2. HepG2 cells were seeded at a final density of 5 × 10^4 cells/well, and DMEM-containing diluted compounds were added and incubated on the plates at 37 °C in 5% CO2 for 24 h. After that, resazurin (final concentration, 0.1 mg/mL) was added to each well and incubated on the plates at 37 °C in 5% CO2 for 2 h. To detect the fluorescence at 530 nm excitation and 590 nm emission, an Ensight multimode plate reader was used (Revvity, Waltham, MA, USA).

Data set [3] has as its target hERG (Homo sapiens, UniProt Q12809). Briefly: hERG binding assay. As to the method:
(§1) Table S1. Results of hERG binding assay and cytotoxicity of 6l and 6y
(§2) Compound hERGa CytotoxicityVERO HFL-1 L929 NIH 3T3 CHO-K1
(§3) a % inhibition at 10 μM concentrations. b IC50 values in various mammalian cell lines. […]
(Block of hERG is tested as a sign of cardiac risk.)

Data set [4] is described as follows: Cytotoxicity in HFL-1 cells. In kind it is cell-based. The following applies: human, HFL-1 cells (embryonic lung cell line). As to the method:
as §1, §2, §3

A short description of data set [5]: Cytotoxicity in NIH 3T3 cells. In kind it is cell-based. The following applies: mouse, NIH 3T3 cells (embryonic fibroblast cell line). As to the method: as §1, §2, §3
The nature of data set [6]: in vitro. In kind it is cell-based. The following applies: Chinese hamster. As to the method:
as §1, §2, §3

Data set [7] in a line: Microsomal stability, human. Format: in vitro ADME. The following applies: human microsomes. As to the method:
(§4) Table S2. Result of microsomal stability, plasma protein binding rate, and CYP inhibition of 6l and 6y
(§5) Compound MSa PPBrat human rat human 1A2 2C9 2C19 2D6 3A4
(§6) a % of remaining after 30 min. b plasma protein binding rate (%) at 5 μM concentrations. c % of CYP
(§7) inhibition in human liver microsomes at 10 μM concentrations. […]

Data set [8] can be described thus: Plasma protein binding, rat. Format: in vitro ADME. The following applies: read-out: PPB rat, plasma protein binding rate (converted). As to the method:
as §4, §5, §6, §7

The nature of data set [9]: Plasma protein binding, human. Format: in vitro ADME. The note with it: read-out: PPB human, plasma protein binding rate (converted). As to the method:
as §4, §5, §6, §7

Data set [10] has as its target T1, CYP1A2 (Homo sapiens, UniProt P05177).
T1 construct: from tissue; host or cells: human liver microsomes
T1 sequence (P05177 1-516): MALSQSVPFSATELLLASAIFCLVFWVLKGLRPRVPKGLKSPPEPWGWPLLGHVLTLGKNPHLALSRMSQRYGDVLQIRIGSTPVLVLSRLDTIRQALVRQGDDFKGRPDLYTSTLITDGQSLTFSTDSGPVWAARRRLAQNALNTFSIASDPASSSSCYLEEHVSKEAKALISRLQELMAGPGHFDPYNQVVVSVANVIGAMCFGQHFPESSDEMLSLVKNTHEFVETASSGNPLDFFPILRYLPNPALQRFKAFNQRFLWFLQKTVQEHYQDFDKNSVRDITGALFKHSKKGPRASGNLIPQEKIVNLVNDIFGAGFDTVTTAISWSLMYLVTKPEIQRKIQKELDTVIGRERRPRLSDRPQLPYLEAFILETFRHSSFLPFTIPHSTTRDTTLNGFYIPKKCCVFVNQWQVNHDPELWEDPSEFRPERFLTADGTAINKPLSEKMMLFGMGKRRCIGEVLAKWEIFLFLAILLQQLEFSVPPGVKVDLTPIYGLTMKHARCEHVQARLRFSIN
Briefly: CYP inhibition in human liver microsomes, 1A2. Format: in vitro ADME. As to the method:
as §4, §5, §6, §7

Data set [11] concerns the target T2, CYP2C9 (Homo sapiens, UniProt P11712).
T2 construct: from tissue; host or cells: human liver microsomes
Briefly: CYP inhibition in human liver microsomes, 2C9. Format: in vitro ADME. The procedure: as §4, §5, §6, §7

Data set [12] has as its target T3, CYP2C19 (Homo sapiens, UniProt P33261).
T3 construct: from tissue; host or cells: human liver microsomes
As to the kind of experiment: CYP inhibition in human liver microsomes, 2C19. In kind it is in vitro ADME. As to the method: as §4, §5, §6, §7

The target of data set [13] is T4, CYP2D6 (Homo sapiens, UniProt P10635).
T4 construct: from tissue; host or cells: human liver microsomes
Briefly: CYP inhibition in human liver microsomes, 2D6. Format: in vitro ADME. The procedure: as §4, §5, §6, §7
(Microsomes from liver hold many membrane-bound enzymes, among them those of drug oxidation.)

Data set [14] deals with T5, CYP3A4 (Homo sapiens, UniProt P08684).
T5 construct: from tissue; host or cells: human liver microsomes
As to the kind of experiment: CYP inhibition in human liver microsomes, 3A4. In kind it is in vitro ADME. The procedure:
as §4, §5, §6, §7

T5 sequence (P08684 whole entry): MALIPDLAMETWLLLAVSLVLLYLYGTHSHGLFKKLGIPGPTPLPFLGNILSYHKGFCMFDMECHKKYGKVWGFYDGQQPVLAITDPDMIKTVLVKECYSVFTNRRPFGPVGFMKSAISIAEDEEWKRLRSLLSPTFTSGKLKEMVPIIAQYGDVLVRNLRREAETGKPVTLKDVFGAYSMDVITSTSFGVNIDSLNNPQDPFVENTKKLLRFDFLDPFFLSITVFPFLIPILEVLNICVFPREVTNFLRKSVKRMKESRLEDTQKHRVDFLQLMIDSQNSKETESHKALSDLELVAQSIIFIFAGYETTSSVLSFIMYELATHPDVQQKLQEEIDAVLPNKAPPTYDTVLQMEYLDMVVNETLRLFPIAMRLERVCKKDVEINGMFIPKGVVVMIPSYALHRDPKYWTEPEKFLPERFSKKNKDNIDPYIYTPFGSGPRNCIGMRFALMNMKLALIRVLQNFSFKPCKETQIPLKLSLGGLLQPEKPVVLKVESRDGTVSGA
T4 sequence (P10635 whole entry): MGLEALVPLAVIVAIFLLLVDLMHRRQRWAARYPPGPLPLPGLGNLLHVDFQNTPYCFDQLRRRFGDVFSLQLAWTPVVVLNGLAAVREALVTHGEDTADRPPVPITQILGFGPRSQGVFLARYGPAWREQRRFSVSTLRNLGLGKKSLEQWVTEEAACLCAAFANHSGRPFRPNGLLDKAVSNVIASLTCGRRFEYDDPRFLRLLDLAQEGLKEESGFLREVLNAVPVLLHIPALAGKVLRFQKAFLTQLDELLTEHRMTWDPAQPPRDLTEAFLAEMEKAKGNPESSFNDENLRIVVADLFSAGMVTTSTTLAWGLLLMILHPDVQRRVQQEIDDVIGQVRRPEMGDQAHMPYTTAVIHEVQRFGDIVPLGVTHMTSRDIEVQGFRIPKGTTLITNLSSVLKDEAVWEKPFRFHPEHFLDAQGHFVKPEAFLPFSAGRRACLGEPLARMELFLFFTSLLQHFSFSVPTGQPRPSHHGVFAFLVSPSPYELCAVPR
T3 sequence (P33261 whole entry): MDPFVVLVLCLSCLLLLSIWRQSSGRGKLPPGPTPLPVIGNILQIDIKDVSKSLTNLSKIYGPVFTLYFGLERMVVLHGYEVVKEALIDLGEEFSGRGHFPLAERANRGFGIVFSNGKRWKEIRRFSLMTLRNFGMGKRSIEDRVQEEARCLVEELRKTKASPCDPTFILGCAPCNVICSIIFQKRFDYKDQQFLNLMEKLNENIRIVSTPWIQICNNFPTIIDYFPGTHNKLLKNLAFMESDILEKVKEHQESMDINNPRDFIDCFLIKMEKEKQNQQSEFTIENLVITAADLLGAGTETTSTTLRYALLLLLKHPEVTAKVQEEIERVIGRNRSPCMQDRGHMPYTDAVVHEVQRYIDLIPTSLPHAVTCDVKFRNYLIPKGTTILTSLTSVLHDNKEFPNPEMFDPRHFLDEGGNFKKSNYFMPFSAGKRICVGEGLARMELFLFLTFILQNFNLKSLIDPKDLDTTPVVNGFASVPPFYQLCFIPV
T2 sequence (P11712 whole entry): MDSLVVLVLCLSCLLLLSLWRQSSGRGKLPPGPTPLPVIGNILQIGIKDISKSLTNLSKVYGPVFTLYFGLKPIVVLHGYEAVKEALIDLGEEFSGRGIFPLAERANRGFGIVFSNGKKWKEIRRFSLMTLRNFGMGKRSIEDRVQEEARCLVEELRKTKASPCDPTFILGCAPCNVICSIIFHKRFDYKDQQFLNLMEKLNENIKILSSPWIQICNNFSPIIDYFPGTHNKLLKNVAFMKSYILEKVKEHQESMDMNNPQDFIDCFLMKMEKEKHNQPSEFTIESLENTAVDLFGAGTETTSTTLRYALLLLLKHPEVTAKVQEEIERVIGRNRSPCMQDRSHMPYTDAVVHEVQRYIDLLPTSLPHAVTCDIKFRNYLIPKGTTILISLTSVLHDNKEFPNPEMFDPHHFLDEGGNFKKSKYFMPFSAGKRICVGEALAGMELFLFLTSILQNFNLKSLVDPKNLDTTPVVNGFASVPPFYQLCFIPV
Sequence of hERG (Q12809 whole entry): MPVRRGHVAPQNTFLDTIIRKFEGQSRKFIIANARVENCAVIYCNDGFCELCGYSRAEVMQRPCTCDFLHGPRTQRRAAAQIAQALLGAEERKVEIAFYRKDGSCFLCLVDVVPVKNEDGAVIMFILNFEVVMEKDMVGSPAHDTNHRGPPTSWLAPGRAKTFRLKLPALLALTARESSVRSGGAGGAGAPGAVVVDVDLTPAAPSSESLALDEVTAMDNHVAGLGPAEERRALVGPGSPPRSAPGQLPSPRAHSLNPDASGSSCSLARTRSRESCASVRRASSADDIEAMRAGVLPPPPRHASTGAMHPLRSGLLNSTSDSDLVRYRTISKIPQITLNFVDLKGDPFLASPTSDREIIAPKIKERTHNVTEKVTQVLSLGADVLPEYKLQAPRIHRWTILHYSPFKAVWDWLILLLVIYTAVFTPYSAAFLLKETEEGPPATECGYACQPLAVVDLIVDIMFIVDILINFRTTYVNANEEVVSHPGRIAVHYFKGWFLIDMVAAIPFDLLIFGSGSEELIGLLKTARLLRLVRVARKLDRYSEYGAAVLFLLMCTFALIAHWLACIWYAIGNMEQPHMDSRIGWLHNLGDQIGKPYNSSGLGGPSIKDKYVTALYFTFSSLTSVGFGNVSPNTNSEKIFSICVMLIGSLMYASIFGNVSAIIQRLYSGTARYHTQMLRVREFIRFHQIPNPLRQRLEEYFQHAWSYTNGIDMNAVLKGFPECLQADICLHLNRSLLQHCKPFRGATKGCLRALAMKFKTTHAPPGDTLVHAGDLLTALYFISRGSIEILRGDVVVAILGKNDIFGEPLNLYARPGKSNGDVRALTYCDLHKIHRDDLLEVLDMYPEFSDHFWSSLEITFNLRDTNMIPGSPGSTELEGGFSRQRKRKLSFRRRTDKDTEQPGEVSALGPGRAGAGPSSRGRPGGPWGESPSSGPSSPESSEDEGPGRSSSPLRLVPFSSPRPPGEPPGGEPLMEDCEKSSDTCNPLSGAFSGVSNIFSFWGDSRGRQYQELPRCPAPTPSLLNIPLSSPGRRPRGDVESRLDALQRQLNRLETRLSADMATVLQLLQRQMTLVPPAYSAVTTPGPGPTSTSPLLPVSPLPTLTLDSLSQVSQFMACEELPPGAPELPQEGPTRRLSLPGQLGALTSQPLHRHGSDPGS

Take `O=c1[nH]c(Nc2cc(Cl)cc(Cl)c2)nc2cc(Cl)ccc12` [6l, 7-Chloro-2-((3,5-dichlorophenyl)amino)quinazolin-4(3H)-one]: in [1], the MIC50 turned out to be 0.6 µM (≈ 0.204 µg/mL). Further, the 50% inhibitory concentration (IC50) in data set [2] is 62.2 µM; in data set [2] (Homo sapiens, HepG2, 24 h), 62 µM; in data set [4], 7.5 µM; in data set [5], over 100 µM; in data set [6], 11 µM. In addition, the inhibition at 10 µM in [3] was 37.8%; in data set [10], 15.1%; in data set [11], 18.2%; in [12], under 1%; in data set [13] it was 20.1%; in data set [14], 32.2%. In addition, the “MS human, % of remaining after 30 min” value in data set [7] worked out at 99.3%. Also, the fraction unbound at 5 μM in data set [8] is 0.001; in [9], 0.002.

As for `O=c1[nH]c(NCc2ccc(F)c(F)c2)nc2cc(Cl)ccc12` [6y, 7-Chloro-2-((3,4-difluorobenzyl)amino)quinazolin-4(3H)-one], the MIC50 in data set [1] amounted to 0.02 µM (≈ 0.00643 µg/mL). Besides, the IC50 in data set [2] (Homo sapiens, HepG2, 24 h) worked out at 20.2 µM; in data set [4], 50.7 µM; in data set [5], 62 µM; in [6], 51.6 µM. The inhibition at 10 µM in [3] turned out to be 11.4%; in data set [10], 92.5%; in data set [11] it was 91%; in [12], 93.6%; in [13] it was 90.1%; in data set [14], 91.4%. Besides, in data set [7], the “MS human, % of remaining after 30 min” value was determined as 42.9%. Moreover, the fraction unbound at 5 μM in data set [8] was 0.005; in data set [9] it was 0.002.
